The target of experiment [1] is T1, Melanocortin receptor 4 (Homo sapiens, UniProt P32245). Description: Agonistic activity against human melanocortin receptor (hMC4R) for cAMP accumulation. Format: functional.
Experiment [2] has as its target T2, Melanocyte-stimulating hormone receptor (Homo sapiens, UniProt Q01726). Briefly: Binding affinity towards human melanocortin receptor (hMC1R) using NDP-MSH as radioligand.
Target sequence in this assay (Q01726 whole entry): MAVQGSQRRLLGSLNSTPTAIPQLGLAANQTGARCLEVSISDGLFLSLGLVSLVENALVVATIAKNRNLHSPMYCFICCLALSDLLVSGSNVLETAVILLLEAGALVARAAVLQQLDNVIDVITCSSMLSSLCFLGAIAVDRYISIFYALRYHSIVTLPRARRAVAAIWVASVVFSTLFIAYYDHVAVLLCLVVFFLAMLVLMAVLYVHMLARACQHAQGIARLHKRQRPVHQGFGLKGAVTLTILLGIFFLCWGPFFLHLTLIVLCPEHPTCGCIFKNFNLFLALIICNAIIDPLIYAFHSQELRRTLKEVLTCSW
Experiment [3] has as its target T1, Melanocortin receptor 4. Description: Binding affinity towards human melanocortin receptor (hMC4R) using NDP-MSH as radioligand.
Experiment [4] has as its target T2, Melanocyte-stimulating hormone receptor. Briefly: Agonistic activity against human melanocortin receptor (hMC1R) for cAMP accumulation at a concentration of 50 uM. Format: functional. A general note: Cyclic AMP is a second messenger, typically raised through Gs and lowered through Gi signalling.
Target sequence in this assay (Q01726 whole entry, looked up): as the sequence (Q01726 whole entry) above
Experiment [5] deals with T1, Melanocortin receptor 4. Briefly: Agonist activity at human melanocortin receptor (hMC4R). The format is functional.
Experiment [6] deals with T3, Melanocortin receptor 5 (Homo sapiens, UniProt P33032). Briefly: Agonistic activity against human melanocortin receptor (hMC5R) for cAMP accumulation at a concentration of 50 uM. Format: functional.
T3 sequence (P33032 whole entry): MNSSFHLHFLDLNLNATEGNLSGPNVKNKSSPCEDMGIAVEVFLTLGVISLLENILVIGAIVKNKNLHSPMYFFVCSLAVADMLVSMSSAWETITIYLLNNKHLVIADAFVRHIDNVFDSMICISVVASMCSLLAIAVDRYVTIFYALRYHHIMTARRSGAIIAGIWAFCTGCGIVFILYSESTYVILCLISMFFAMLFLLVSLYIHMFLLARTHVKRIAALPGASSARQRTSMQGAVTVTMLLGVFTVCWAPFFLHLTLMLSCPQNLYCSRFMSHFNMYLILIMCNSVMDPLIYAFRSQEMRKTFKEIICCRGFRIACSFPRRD
The target of experiment [7] is T4, Melanocortin receptor 3 (Homo sapiens, UniProt P41968). Description: Agonistic activity against human melanocortin receptor (hMC3R) for cAMP accumulation at a concentration of 50 uM. The format is functional.
T4 sequence (P41968 whole entry): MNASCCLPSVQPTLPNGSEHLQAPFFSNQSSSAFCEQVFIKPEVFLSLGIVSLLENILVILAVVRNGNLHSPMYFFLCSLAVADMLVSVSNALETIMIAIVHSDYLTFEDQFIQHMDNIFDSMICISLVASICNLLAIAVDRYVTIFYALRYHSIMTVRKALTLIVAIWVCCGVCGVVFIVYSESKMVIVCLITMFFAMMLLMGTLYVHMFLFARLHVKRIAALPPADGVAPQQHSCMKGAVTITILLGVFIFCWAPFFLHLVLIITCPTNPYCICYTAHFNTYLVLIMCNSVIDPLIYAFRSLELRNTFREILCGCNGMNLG
Experiment [8] deals with Melanocortin receptor 4. Description: (§1) Agonistic activity against human melanocortin receptor (hMC1R) for cAMP accumulation. Format: functional.
The target of experiment [9] is T2, Melanocyte-stimulating hormone receptor. The description is as §1. The format is functional.
Target sequence in this assay (Q01726 whole entry, looked up): as the sequence (Q01726 whole entry) above
Experiment [10] has the same target. Briefly: Agonist activity at human melanocortin receptor (hMC1R). The format is functional.
Target sequence in this assay (Q01726 whole entry): as above
Experiment [11] has as its target T3, Melanocortin receptor 5. Description: Agonistic activity against human melanocortin receptor (hMC5R) for cAMP accumulation. Format: functional.
For experiment [12], the target named is T4, Melanocortin receptor 3. Description: Agonistic activity against human melanocortin receptor (hMC3R) for cAMP accumulation. Format: functional.

T1 sequence (P32245 whole entry): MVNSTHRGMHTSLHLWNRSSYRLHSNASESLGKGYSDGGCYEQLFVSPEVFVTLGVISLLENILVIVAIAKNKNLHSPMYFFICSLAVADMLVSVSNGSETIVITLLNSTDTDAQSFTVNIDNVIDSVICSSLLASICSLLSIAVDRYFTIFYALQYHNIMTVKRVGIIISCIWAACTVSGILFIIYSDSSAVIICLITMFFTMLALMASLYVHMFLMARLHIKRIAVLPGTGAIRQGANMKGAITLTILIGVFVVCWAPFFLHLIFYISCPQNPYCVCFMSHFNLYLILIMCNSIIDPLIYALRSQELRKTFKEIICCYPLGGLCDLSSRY

As usually defined, the EC50 is the concentration giving half of the maximal effect. By IC50 is commonly meant the concentration that inhibits the measured activity by half. A low value points to higher potency. The compound `CCCCC(=O)N[C@H]1CC(=O)NCCCC[C@@H](C(N)=O)NC(=O)[C@H](Cc2c[nH]c3ccccc23)NC(=O)[C@H](CCCN=C(N)N)NC(=O)[C@@H](Cc2ccccc2)NC(=O)C2(CCc3c(Cl)cccc3C2)NC1=O` (single isomer, unassigned; form 1) came in with an EC50 in [1] of 4 nM. In addition, the figures for the IC50 in [2] and in [3] were 5820 nM and 15 nM, respectively.

`CCCCC(=O)N[C@H]1CC(=O)NCCCC[C@@H](C(N)=O)NC(=O)[C@H](Cc2c[nH]c3ccccc23)NC(=O)[C@H](CCCNC(N)=O)NC(=O)[C@@H](Cc2ccccc2)NC(=O)C2(CCc3c(Cl)cccc3C2)NC1=O` (single isomer, unassigned; form 2) displayed an EC50 in experiment [1] of 105 nM. Besides, the figures for the IC50 in experiment [2] and in [3] were 14800 nM and 675 nM, respectively.

In the case of `CCCCC(=O)N[C@H]1CC(=O)NCCCC[C@@H](C(N)=O)NC(=O)[C@H](Cc2c[nH]c3ccccc23)NC(=O)[C@H](CCCN=C(N)N)NC(=O)[C@@H](Cc2ccccc2)NC(=O)[C@@]2(CCc3c(C)cccc3C2)NC1=O` (mixture of isomers), the cAMP accumulation in [4] came out at 80%. In experiment [5], this compound registered an EC50 of 25 nM.

In the case of `CCCCC(=O)N[C@H]1CC(=O)NCCCC[C@@H](C(N)=O)NC(=O)[C@H](Cc2c[nH]c3ccccc23)NC(=O)[C@H](CCCNC(N)=O)NC(=O)[C@@H](Cc2ccccc2)NC(=O)C2(CCc3c(Cl)cccc3C2)NC1=O` (single isomer, unassigned; form 1), the EC50 in experiment [1] is 48 nM. The IC50 was determined as 13100 nM in experiment [2] and 410 nM in [3].

Turning to `CCCCC(=O)N[C@@H]1CC(=O)NCCCC[C@@H](C(N)=O)NC(=O)[C@H](Cc2c[nH]c3ccccc23)NC(=O)[C@@H](CCCNC(N)=O)NC(=O)[C@H](Cc2ccccc2)NC(=O)C2(CCc3c(Cl)cccc3C2)NC1=O` (single isomer, unassigned; form 2), the cAMP accumulation in experiment [4], in experiment [6] and in [7] was 0% in each case.

Turning to `CCCCC(=O)N[C@@H]1CC(=O)NCCCC[C@@H](C(N)=O)NC(=O)[C@H](Cc2c[nH]c3ccccc23)NC(=O)[C@@H](CCCN=C(N)N)NC(=O)[C@H](Cc2ccccc2)NC(=O)C2(CCc3c(Cl)cccc3C2)NC1=O` (single isomer, unassigned; form 1), the cAMP accumulation in experiment [4] turned out to be 20%; in experiment [6], 75%; in [7], 25%.

`CCCCC(=O)N[C@@H]1CC(=O)NCCCC[C@@H](C(N)=O)NC(=O)[C@H](Cc2c[nH]c3ccccc23)NC(=O)[C@@H](CCCNC(N)=O)NC(=O)[C@H](Cc2ccccc2)NC(=O)C2(CCc3c(Cl)cccc3C2)NC1=O` (single isomer, unassigned; form 1): the cAMP accumulation in experiment [4], in [6] and in experiment [7] was 0% each time.

Take `CCCCC(=O)N[C@H]1CC(=O)NCCCC[C@@H](C(N)=O)NC(=O)[C@H](Cc2c[nH]c3ccccc23)NC(=O)[C@H](CCCNC(=N)N)NC(=O)[C@@H](Cc2ccccc2)NC(=O)[C@H](Cc2ccc(-c3ccccc3)cc2)NC1=O`: the EC50 in experiment [5] stood at 6 nM; in experiment [8], 53 nM.

On to `CCCCC(=O)N[C@H]1CC(=O)NCCCC[C@@H](C(N)=O)NC(=O)[C@H](Cc2c[nH]c3ccccc23)NC(=O)[C@H](CCCN=C(N)N)NC(=O)[C@@H](Cc2ccccc2)NC(=O)[C@@H]2c3ccccc3CN2C1=O` (single isomer, unassigned; form 1), for which the EC50 is 118 nM in experiment [5] and 56 nM in experiment [9].

`CCCCC(=O)N[C@@H]1CC(=O)NCCCC[C@@H](C(N)=O)NC(=O)[C@H](Cc2c[nH]c3ccccc23)NC(=O)[C@@H](CCCN=C(N)N)NC(=O)[C@H](Cc2ccccc2)NC(=O)C2(CCc3cc(Br)ccc3C2)NC1=O` (mixture of isomers) came in with a cAMP accumulation in [4] of 60%.

For `CCCCC(=O)N[C@@H]1CC(=O)NCCCC[C@@H](C(N)=O)NC(=O)[C@H](Cc2c[nH]c3ccccc23)NC(=O)[C@@H](CCCN=C(N)N)NC(=O)[C@H](Cc2ccccc2)NC(=O)C2(CCc3c(Cl)cccc3C2)NC1=O` (single isomer, unassigned; form 2), the cAMP accumulation in experiment [4] was found to be 60%; in experiment [6], 38%; in experiment [7], 0%.

On to `CCCCC(=O)N[C@H]1CC(=O)NCCCC[C@@H](C(N)=O)NC(=O)[C@H](Cc2c[nH]c3ccccc23)NC(=O)[C@H](CCCN=C(N)N)NC(=O)[C@@H](Cc2ccccc2)NC(=O)C2(CCc3c(Cl)cccc3C2)NC1=O` (single isomer, unassigned; form 2), for which, in experiment [1], the EC50 was 40 nM.

Regarding `CCCCC(=O)N[C@@H]1CC(=O)NCCCC[C@@H](C(N)=O)NC(=O)[C@H](Cc2c[nH]c3ccccc23)NC(=O)[C@@H](CCCN=C(N)N)NC(=O)[C@H](Cc2ccccc2)NC(=O)C2(CCc3cc(Cl)ccc3C2)NC1=O` (mixture of isomers), the cAMP accumulation in experiment [4] stood at 50%.

In the case of `CCCCC(=O)N[C@H]1CC(=O)NCCCC[C@@H](C(N)=O)NC(=O)[C@H](Cc2c[nH]c3ccccc23)NC(=O)[C@H](CCCNC(=N)N)NC(=O)[C@@H](Cc2ccccc2)NC(=O)[C@H](Cc2cnc[nH]2)NC1=O`, the EC50 in experiment [10] is 0.4 nM; in experiment [5] it was 0.9 nM; in experiment [11], 33 nM; in experiment [12], 6 nM.
